Assay results: PubChem BioAssay AID330 (DTP/NCI, 2004)
Where “and” joins values, the source holds several entries; their conditions need not be identical. Equal values may be shown once. Toxic doses and inconclusive results are not listed.

Test system: P388 leukemia ip, CD2F1 mice, survival T/C
Test: NCI In Vivo Anticancer Drug Screen. Data for tumor model P388 Leukemia (intraperitoneal) in CD2F1 (CDF1) mice
Conditions: endpoint: median survival time, higher = longer survival
Procedure, shortened: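 Mice carrying the transplanted tumor received test compound or vehicle. Survival was recorded in each group, and the value is the treated-group measurement divided by that of the vehicle-treated control group.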

[1] = dose: 100.0 mg/kg/injection, schedule: Q01DX001 (ip), vehicle: Klucel (hydroxypropylcellulose) (HPC)
[2] = dose: 200.0 mg/kg/injection, schedule: Q01DX001 (ip), vehicle: Klucel (hydroxypropylcellulose) (HPC)
[3] = dose: 400.0 mg/kg/injection, schedule: Q01DX001 (ip), vehicle: Klucel (hydroxypropylcellulose) (HPC)
[4] = dose: 50.0 mg/kg/injection, schedule: Q01DX005 (ip), vehicle: Klucel (hydroxypropylcellulose) (HPC)
[5] = dose: 100.0 mg/kg/injection, schedule: Q01DX005 (ip), vehicle: Klucel (hydroxypropylcellulose) (HPC)
[6] = dose: 200.0 mg/kg/injection, schedule: Q01DX005 (ip), vehicle: Klucel (hydroxypropylcellulose) (HPC)
[7] = dose: 60.0 mg/kg/injection, schedule: Q01DX005 (ip), vehicle: saline with Tween-80
[8] = dose: 120.0 mg/kg/injection, schedule: Q01DX005 (ip), vehicle: saline with Tween-80
[9] = dose: 240.0 mg/kg/injection, schedule: Q01DX005 (ip), vehicle: saline with Tween-80
[10] = dose: 25.0 mg/kg/injection, schedule: Q01DX009 (ip), vehicle: saline with Tween-80
[11] = dose: 50.0 mg/kg/injection, schedule: Q01DX009 (ip), vehicle: saline with Tween-80
[12] = dose: 100.0 mg/kg/injection, schedule: Q01DX009 (ip), vehicle: saline with Tween-80
[13] = dose: 200.0 mg/kg/injection, schedule: Q01DX009 (ip), vehicle: saline with Tween-80

CN1C(=O)/C(=C2\SC(=O)N(Cc3nc4ccccc4[nH]3)C2=O)c2cc(Br)ccc21
T/C [1]: 98 % of control | T/C [2]: 95 % of control | T/C [3]: 88 % of control

COC(=O)CCC(=S)N(C)C
T/C [4]: 101 % of control | T/C [5]: 101 % of control | T/C [6]: 103 % of control

CCOc1cc2c(cc1Cc1ccc(OC)cc1OC)OCO2
T/C [7]: 104 % of control and 107 % of control and 112 % of control | T/C [8]: 102 % of control and 107 % of control | T/C [9]: 111 % of control and 123 % of control | T/C (dose: 480.0 mg/kg/injection, schedule: Q01DX005 (ip), vehicle: saline with Tween-80): 118 % of control

O=C1C=CC(=O)N1n1cccc1
T/C (dose: 6.25 mg/kg/injection, schedule: Q01DX009 (ip), vehicle: Klucel (hydroxypropylcellulose) (HPC)): 105 % of control | T/C (dose: 12.5 mg/kg/injection, schedule: Q01DX009 (ip), vehicle: Klucel (hydroxypropylcellulose) (HPC)): 98 % of control | T/C (dose: 25.0 mg/kg/injection, schedule: Q01DX009 (ip), vehicle: Klucel (hydroxypropylcellulose) (HPC)): 90 % of control

COc1cccc(C2NC(c3cccc(OC)c3)C3CCCC2C3=O)c1 (stereo not given)
T/C (dose: 25.0 mg/kg/injection, schedule: Q01DX005 (ip), vehicle: Klucel (hydroxypropylcellulose) (HPC)): 103 % of control | T/C [4]: 102 % of control | T/C [5]: 106 % of control | T/C [6]: 102 % of control

CCC/C=C1\OC(=O)c2ccccc21
T/C (dose: 12.5 mg/kg/injection, schedule: Q01DX009 (ip), vehicle: saline with Tween-80): 104 % of control | T/C [10]: 100 % of control | T/C [11]: 104 % of control | T/C [12]: 100 % of control | T/C [13]: 114 % of control

Cc1c2cc[n+]([O-])cc2c(C)c2c1oc1ccccc12
T/C [10]: 115 % of control | T/C [12]: 154 % of control | T/C [13]: 165 % of control and 173 % of control

Cc1ccc(C(=O)Nc2c(C)cccc2C)cc1
T/C [7]: 98 % of control | T/C [8]: 92 % of control

O=c1cn[nH]c(=O)[nH]1
T/C (dose: 62.5 mg/kg/injection, schedule: Q01DX010 (ip), vehicle: saline): 100 % of control | T/C (dose: 125.0 mg/kg/injection, schedule: Q01DX010 (ip), vehicle: saline): 91 % of control | T/C (dose: 250.0 mg/kg/injection, schedule: Q01DX010 (ip), vehicle: saline): 91 % of control

CCOC(=O)C1(CC)C(=O)C=C(c2ccccc2)CC1c1ccccc1 (stereo not given)
T/C (dose: 100.0 mg/kg/injection, schedule: Q01DX009 (ip), vehicle: Klucel (hydroxypropylcellulose) (HPC)): 99 % of control | T/C (dose: 200.0 mg/kg/injection, schedule: Q01DX009 (ip), vehicle: Klucel (hydroxypropylcellulose) (HPC)): 94 % of control | T/C (dose: 400.0 mg/kg/injection, schedule: Q01DX009 (ip), vehicle: Klucel (hydroxypropylcellulose) (HPC)): 94 % of control

[S]=[W]=[S]
T/C [11]: 98 % of control | T/C [12]: 102 % of control | T/C [13]: 96 % of control

O=C(Nc1ccc(NC(=O)Nc2cccc(C3=NCCCN3)c2)cc1)Nc1ccc(C2=NCCCN2)cc1
T/C (dose: 2.5 mg/kg/injection, schedule: Q01DX009 (ip), vehicle: saline with Tween-80): 113 % of control | T/C (dose: 5.0 mg/kg/injection, schedule: Q04DX003 (ip), vehicle: saline with Tween-80): 100 % of control | T/C (dose: 10.0 mg/kg/injection, schedule: Q04DX003 (ip), vehicle: saline with Tween-80): 109 % of control

Cc1cc(=O)n2c(c1)[nH]c1ccccc12
T/C [1]: 89 % of control | T/C [2]: 90 % of control | T/C [3]: 88 % of control

CC1SC2(C(=O)Nc3ccc([N+](=O)[O-])cc32)N(c2ccc(Cl)cc2)C1=O (stereo not given)
T/C [7]: 91 % of control | T/C [8]: 91 % of control | T/C [9]: 91 % of control
